Measurements: US20060069132A1, “Azolecarboxamide herbicides” (priority 2004, published 2006)

How the values were obtained:
barnyardgrass [1] = test: Test A pre-/postemergence herbicide test; type: in vivo, Echinochloa crus-galli
Procedure, shortened: (§1)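 Both application timings were run together: directed soil spray over freshly planted seeds in sandy loam, and runoff spray onto 2–10 cm seedlings. Evaluation after ~10 days in greenhouse used a 0–100 visual scale versus untreated controls.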

large crabgrass = test: Test A pre-/postemergence herbicide test; type: in vivo, Digitaria sanguinalis
Procedure, shortened: as §1

giant foxtail = test: Test A pre-/postemergence herbicide test; type: in vivo, Setaria faberi
Procedure, shortened: as §1

morningglory = test: Test A pre-/postemergence herbicide test; type: in vivo, Ipomoea spp.
Procedure, shortened: as §1

redroot pigweed = test: Test A pre-/postemergence herbicide test; type: in vivo, Amaranthus retroflexus
Procedure, shortened: as §1

velvetleaf = test: Test A pre-/postemergence herbicide test; type: in vivo, Abutilon theophrasti
Procedure, shortened: as §1

rice = test: Test B flooded paddy test; type: in vivo, Oryza sativa; settings: scale 0 to 100 (0 no effect, 100 complete control)
Procedure, shortened: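 Visual ratings, 0 (no effect) to 100 (complete control), made versus controls after 13–15 d greenhouse. Paddy plants treated at 2-leaf stage; postemergence plants at 1- to 4-leaf stage, 2–18 cm tall.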

[2] = system: small flower umbrella sedge; test: Test B flooded paddy test; type: in vivo, Cyperus difformis; settings: scale 0 to 100 (0 no effect, 100 complete control)
Procedure, shortened: (§2)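 Formulated test chemicals went onto postemergence plants measuring 2 to 18 cm, at one to four leaves. For the paddy assay, species had reached two leaves. Scoring took place 13–15 days later by eye, relative to untreated plants, using 0 for no effect up to 100 for full control.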

ducksalad = test: Test B flooded paddy test; type: in vivo, Heteranthera limosa; settings: scale 0 to 100 (0 no effect, 100 complete control)
Procedure, shortened: as §2

barnyardgrass [3] = test: Test B flooded paddy test; type: in vivo, Echinochloa crus-galli; settings: scale 0 to 100 (0 no effect, 100 complete control)
Procedure, shortened: as §2

[4] = Postemergence, 125 g ai/ha, 0 to 100 scale, 0 no effect, 100 complete control
[5] = Postemergence, 500 g ai/ha, 0 to 100 scale, 0 no effect, 100 complete control
[6] = preemergence, 125 g ai/ha, visual injury, 0 to 100 scale (0 no effect, 100 complete control)
[7] = preemergence, 500 g ai/ha, visual injury, 0 to 100 scale (0 no effect, 100 complete control)

Structure (SMILES)	Barnyardgrass plant response rating (barnyardgrass [1]; [4])	Barnyardgrass plant response rating (barnyardgrass [1]; [5])	Barnyardgrass plant response rating (barnyardgrass [1]; [6])	Barnyardgrass plant response rating (barnyardgrass [1]; [7])	Crabgrass, Large plant response rating (large crabgrass; [4])	Crabgrass, Large plant response rating (large crabgrass; [5])	Crabgrass, Large plant response rating (large crabgrass; [6])	Crabgrass, Large plant response rating (large crabgrass; [7])	Foxtail, Giant plant response rating (giant foxtail; [4])	Foxtail, Giant plant response rating (giant foxtail; [5])	Foxtail, Giant plant response rating (giant foxtail; [6])	Foxtail, Giant plant response rating (giant foxtail; [7])	Morningglory plant response rating (morningglory; [4])	Morningglory plant response rating (morningglory; [5])	Morningglory plant response rating (morningglory; [6])	Morningglory plant response rating (morningglory; [7])	Pigweed plant response rating (redroot pigweed; [4])	Pigweed plant response rating (redroot pigweed; [5])	Pigweed plant response rating (redroot pigweed; [6])	Pigweed plant response rating (redroot pigweed; [7])	also measured
CCc1nn(C(C)(C)C)cc1C(=O)Nc1cc(C(=S)N(C)C)ccc1F [Compound 454]	40	80	70	85	10	70	50	85	20	70	10	85	10	50	0	20	40	70	20	90	Velvetleaf plant response rating (velvetleaf; [4]): 50; Velvetleaf plant response rating (velvetleaf; [5]): 70; Velvetleaf plant response rating (velvetleaf; [6]): 0; Velvetleaf plant response rating (velvetleaf; [7]): 20; Rice plant response rating (rice; 125 g ai/ha): 60; Rice plant response rating (rice; 500 g ai/ha): 80; Sedge, Umbrella plant response rating ([2]; 125 g ai/ha): 60; Sedge, Umbrella plant response rating ([2]; 500 g ai/ha): 70; Ducksalad plant response rating (ducksalad; 125 g ai/ha): 50; Ducksalad plant response rating (ducksalad; 500 g ai/ha): 70; Barnyardgrass plant response rating (barnyardgrass [3]; 125 g ai/ha): 50; Barnyardgrass plant response rating (barnyardgrass [3]; 500 g ai/ha): 90
CCn1nc(C(C)(C)C)nc1C(=O)Nc1cccc(OC(F)(F)F)c1 [Compound 449]	20	35	45	90	20	30	35	80	20	50	60	90	5	15	0	5	20	40	0	50	Velvetleaf plant response rating (velvetleaf; [4]): 10; Velvetleaf plant response rating (velvetleaf; [5]): 20; Velvetleaf plant response rating (velvetleaf; [6]): 0; Velvetleaf plant response rating (velvetleaf; [7]): 10; Rice plant response rating (rice; 125 g ai/ha): 10; Rice plant response rating (rice; 500 g ai/ha): 50; Sedge, Umbrella plant response rating ([2]; 125 g ai/ha): 30; Sedge, Umbrella plant response rating ([2]; 500 g ai/ha): 80; Ducksalad plant response rating (ducksalad; 125 g ai/ha): 20; Ducksalad plant response rating (ducksalad; 500 g ai/ha): 70; Barnyardgrass plant response rating (barnyardgrass [3]; 125 g ai/ha): 0; Barnyardgrass plant response rating (barnyardgrass [3]; 500 g ai/ha): 30
CCn1nc(C(C)(C)C)nc1C(=O)Nc1cccc(C(=O)N(C)C)c1 [Compound 448]	90	90	95	100	75	80	45	85	85	90	80	100	15	55	60	60	70	90	100	100	Velvetleaf plant response rating (velvetleaf; [4]): 60; Velvetleaf plant response rating (velvetleaf; [5]): 80; Velvetleaf plant response rating (velvetleaf; [6]): 15; Velvetleaf plant response rating (velvetleaf; [7]): 85; Rice plant response rating (rice; 125 g ai/ha): 80; Rice plant response rating (rice; 500 g ai/ha): 90; Sedge, Umbrella plant response rating ([2]; 125 g ai/ha): 90; Sedge, Umbrella plant response rating ([2]; 500 g ai/ha): 90; Ducksalad plant response rating (ducksalad; 125 g ai/ha): 70; Ducksalad plant response rating (ducksalad; 500 g ai/ha): 80; Barnyardgrass plant response rating (barnyardgrass [3]; 125 g ai/ha): 90; Barnyardgrass plant response rating (barnyardgrass [3]; 500 g ai/ha): 100
